From US10004701B2, “Methods and compositions for treating infection” (UNIVERSITY OF ROCHESTER, priority 2012, dated 2018)

Experiments:
Assay in all cases: AK assay 384-well format, Prestwick library screening
[1] = system: E. faecium; type: cell-based, Enterococcus faecium; settings: 50 μM final drug concentration; for AK-based Prestwick Library Screening Results, E. faecium (fold increase in extracellular AK activity): planktonic
[2] = system: S. aureus strain USA300-0114; type: cell-based, Staphylococcus aureus; settings: 50 μM final drug concentration; for AK-based Prestwick Library Screening Results, S. aureus (fold increase in extracellular AK activity): planktonic
[3] = system: K. pneumoniae; type: cell-based, Klebsiella pneumoniae; settings: 50 μM final drug concentration; for AK-based Prestwick Library Screening Results, K. pneumoniae (fold increase in extracellular AK activity): planktonic
[4] = system: A. baumannii strain 98-37-09; type: cell-based, Acinetobacter baumannii; settings: 50 μM final drug concentration; for AK-based Prestwick Library Screening Results, A. baumannii (fold increase in extracellular AK activity): planktonic
[5] = system: P. aeruginosa; type: cell-based, Pseudomonas aeruginosa; settings: 50 μM final drug concentration; for AK-based Prestwick Library Screening Results, P. aeruginosa (fold increase in extracellular AK activity): planktonic
[6] = system: E. cloacae; type: cell-based, Enterobacter cloacae; settings: 50 μM final drug concentration; for AK-based Prestwick Library Screening Results, E. cloacae (fold increase in extracellular AK activity): planktonic
[7] = system: E. coli; type: cell-based, Escherichia coli; settings: 50 μM final drug concentration; for AK-based Prestwick Library Screening Results, E. coli (fold increase in extracellular AK activity): planktonic
[8] = 384-well format, cutoff for positive-scoring molecules 3-fold increase
[9] = cutoff for positive-scoring molecules 3-fold increase
[10] = cutoff for positive 3-fold increase

OCC(O)CN1CCN(c2ccccc2)CC1 (racemic) [Dropropizine (R,S)]
AK-based Prestwick Library Screening Results, E. faecium (increase in extracellular AK activity) [1, 8]: 0.9 | AK-based Prestwick Library Screening Results, S. aureus (increase in extracellular AK activity) [2, 8]: 0.5 | AK-based Prestwick Library Screening Results, K. pneumoniae (increase in extracellular AK activity) [3, 8]: 0.5 | AK-based Prestwick Library Screening Results, A. baumannii (increase in extracellular AK activity) [4, 8]: 0.5 | AK-based Prestwick Library Screening Results, P. aeruginosa (increase in extracellular AK activity) [5, 8]: 0.5 | AK-based Prestwick Library Screening Results, E. cloacae (increase in extracellular AK activity) [6, 8]: 0.5 | AK-based Prestwick Library Screening Results, E. coli (increase in extracellular AK activity) [7, 8]: 0.7

Nc1c2c(nc3ccccc13)CCCC2O.O=C(O)/C=C\C(=O)O (racemic) [Hydroxytacrine maleate (R,S)]
AK-based Prestwick Library Screening Results, E. faecium (increase in extracellular AK activity) ([1]; planktonic E. faecium, cutoff for positive-scoring molecules 3-fold increase): 1.0 | AK-based Prestwick Library Screening Results, S. aureus (increase in extracellular AK activity) ([2]; planktonic S. aureus, cutoff for positive-scoring molecules 3-fold increase): 3.0 | AK-based Prestwick Library Screening Results, K. pneumoniae (increase in extracellular AK activity) ([3]; planktonic K. pneumoniae, cutoff for positive-scoring molecules 3-fold increase): 1.0 | AK-based Prestwick Library Screening Results, A. baumannii (increase in extracellular AK activity) ([4]; planktonic A. baumannii, cutoff for positive-scoring molecules 3-fold increase): 1.0 | AK-based Prestwick Library Screening Results, P. aeruginosa (increase in extracellular AK activity) ([5]; planktonic P. aeruginosa, cutoff for positive-scoring molecules 3-fold increase): 1.0 | AK-based Prestwick Library Screening Results, E. cloacae (increase in extracellular AK activity) ([6]; planktonic E. cloacae, cutoff for positive-scoring molecules 3-fold increase): 1.3 | AK-based Prestwick Library Screening Results, E. coli (increase in extracellular AK activity) ([7]; planktonic E. coli, […]): 1.3

COc1ccc(CC2c3cc(OC)c(OC)cc3CCN2C)cc1OC (racemic) [Laudanosine (R,S)]
AK-based Prestwick Library Screening Results, E. faecium (increase in extracellular AK activity) ([1]; planktonic E. faecium, […]): 0.9 | AK-based Prestwick Library Screening Results, S. aureus (increase in extracellular AK activity) ([2]; planktonic S. aureus, […]): 0.7 | AK-based Prestwick Library Screening Results, K. pneumoniae (increase in extracellular AK activity) ([3]; planktonic K. pneumoniae, […]): 0.7 | AK-based Prestwick Library Screening Results, A. baumannii (increase in extracellular AK activity) ([4]; planktonic A. baumannii, […]): 0.9 | AK-based Prestwick Library Screening Results, P. aeruginosa (increase in extracellular AK activity) ([5]; planktonic P. aeruginosa, […]): 0.9 | AK-based Prestwick Library Screening Results, E. cloacae (increase in extracellular AK activity) ([6]; planktonic E. cloacae, […]): 1.3 | AK-based Prestwick Library Screening Results, E. coli (increase in extracellular AK activity) ([7]; planktonic E. coli, […]): 1.0

COCCc1ccc(OCC(O)CNC(C)C)cc1.COCCc1ccc(OCC(O)CNC(C)C)cc1.O=C(O)C(O)C(O)C(=O)O (racemic) [Metoprolol-(+,−) (+)-tartrate salt]
AK-based Prestwick Library Screening Results, E. faecium (fold increase in extracellular AK activity) [1, 9]: 0.9 | AK-based Prestwick Library Screening Results, S. aureus (fold increase in extracellular AK activity) [2, 9]: 0.6 | AK-based Prestwick Library Screening Results, K. pneumoniae (fold increase in extracellular AK activity) [3, 9]: 0.5 | AK-based Prestwick Library Screening Results, A. baumannii (fold increase in extracellular AK activity) [4, 9]: 0.7 | AK-based Prestwick Library Screening Results, P. aeruginosa (fold increase in extracellular AK activity) [5, 9]: 0.7 | AK-based Prestwick Library Screening Results, E. cloacae (fold increase in extracellular AK activity) [6, 9]: 7.0 | AK-based Prestwick Library Screening Results, E. coli (fold increase in extracellular AK activity) [7, 9]: 0.6

CC(=O)NC1CCSC1=O (racemic) [N-Acetyl-DL-homocysteine Thiolactone]
AK-based Prestwick Library Screening Results, E. faecium (fold increase in extracellular AK activity) [1, 10]: 0.8 | AK-based Prestwick Library Screening Results, S. aureus (fold increase in extracellular AK activity) [2, 10]: 0.4 | AK-based Prestwick Library Screening Results, K. pneumoniae (fold increase in extracellular AK activity) [3, 10]: 0.4 | AK-based Prestwick Library Screening Results, A. baumannii (fold increase in extracellular AK activity) [4, 10]: 0.4 | AK-based Prestwick Library Screening Results, P. aeruginosa (fold increase in extracellular AK activity) [5, 10]: 0.3 | AK-based Prestwick Library Screening Results, E. cloacae (fold increase in extracellular AK activity) [6, 10]: 0.7 | AK-based Prestwick Library Screening Results, E. coli (fold increase in extracellular AK activity) [7, 10]: 0.5

CN1CCC2(C)c3cc(O)ccc3N(C)C12.O=C(O)/C=C/C(=O)O (single isomer, unassigned; (-)) [(−)-Eseroline fumarate salt]
AK-based Prestwick library screening result, E. faecium (fold increase in extracellular AK activity) ([1]; planktonic E. faecium, […]): 1.1 | AK-based Prestwick library screening result, S. aureus (fold increase in extracellular AK activity) ([2]; planktonic S. aureus, […]): 0.9 | AK-based Prestwick library screening result, K. pneumoniae (fold increase in extracellular AK activity) ([3]; planktonic K. pneumoniae, […]): 0.9 | AK-based Prestwick library screening result, A. baumannii (fold increase in extracellular AK activity) ([4]; planktonic A. baumannii, […]): 0.9 | AK-based Prestwick library screening result, P. aeruginosa (fold increase in extracellular AK activity) ([5]; planktonic P. aeruginosa, […]): 0.8 | AK-based Prestwick library screening result, E. cloacae (fold increase in extracellular AK activity) ([6]; planktonic E. cloacae, […]): 1.4 | AK-based Prestwick library screening result, E. coli (fold increase in extracellular AK activity) ([7]; planktonic E. coli, […]): 1.0

CC(C)NCC(O)c1ccc(O)c(O)c1.Cl (single isomer, unassigned; (-)) [(−)-Isoproterenol hydrochloride]
AK-based Prestwick library screening result, E. faecium (fold increase in extracellular AK activity) ([1]; planktonic E. faecium, positive cutoff 3-fold increase): 0.9 | AK-based Prestwick library screening result, S. aureus (fold increase in extracellular AK activity) ([2]; planktonic S. aureus, positive cutoff 3-fold increase): 0.9 | AK-based Prestwick library screening result, K. pneumoniae (fold increase in extracellular AK activity) ([3]; planktonic K. pneumoniae, positive cutoff 3-fold increase): 1.2 | AK-based Prestwick library screening result, A. baumannii (fold increase in extracellular AK activity) ([4]; planktonic A. baumannii, positive cutoff 3-fold increase): 0.9 | AK-based Prestwick library screening result, P. aeruginosa (fold increase in extracellular AK activity) ([5]; planktonic P. aeruginosa, positive cutoff 3-fold increase): 1.1 | AK-based Prestwick library screening result, E. cloacae (fold increase in extracellular AK activity) ([6]; planktonic E. cloacae, positive cutoff 3-fold increase): 2.3 | AK-based Prestwick library screening result, E. coli (fold increase in extracellular AK activity) ([7]; planktonic E. coli, positive cutoff 3-fold increase): 1.2
